Assay [1] deals with pancreatic islets. Nature of the assay: Separation of pancreatic islets from rats with the enzyme solution: yield of pancreatic islets. The assay is classed as cell-based. The following applies: per rat, n=8; collagenase (2 mg/mL) Hanks' solution infused via pancreatic duct, 37° C. 32 minutes; DIDS 200 μM or NaCl substituted with sodium glutamate. How it is done: The rats were grouped into three groups (a control group, a DIDS group, a low Cl^− group) each including 8 rats, then abdominal section was carried out to each rat under ether anesthesia, the choledoch duct was clamped in the vicinity of the entrance of the duodenum, and cannula was inserted. Then, 12 mL of Hanks' solution (NaCl: […], KCl: 400 mg/mL, MgSG4: 48.8 mg/mL, MgCl2: 46.8 mg/mL, CaCl2: 140 mg/mL, KH2PO4: 60 mg/mL, Na HPO4: 47.9 mg/mL and glucose: 1000 mg/mL) containing collagenase (2 mg/mL) was infused into the pancreas via the pancreatic duct from the cannula. However, to the DIDS group, DIDS (200 μM) as a chloride ion channel inhibitor was further added, and to the low Cl^− group, sodium chloride in the Hanks' solution was substituted with sodium glutamate.
The pancreas that had been swollen by infusion of the solution was extracted, and incubated at 37° C. for 32 minutes. Thereafter, degraded tissue was placed into 50 mL conical tube, and the Hanks' solution at 4° C. was added so as to stop the enzyme reaction. The tube was gently shaken, and subjected to centrifugation at 320G for 10 to 15 seconds. […]
For the yield of the pancreatic islets, IEQ (islet equivalents; the number of pancreatic islets based on the diameter of 150 μm) as a unit is used. […] Note here that the number of pancreatic islets whose diameter was less than 50 μm was not counted.

Assay [2] relates to pancreatic islets. Nature of the assay: Evaluation of damages in pancreatic islets (AO/PI staining, viability). Type of assay: cell-based, rats. The following applies: AO/PI fluorescence area, n=8 in each group; islets separated in Example 1. From the text: The degree of damage of pancreatic islets can be evaluated based on whether or not a barrier function of the cell membrane can be maintained. Then, the pancreatic islets of each group separated in Example 1 (n=8 in each group) was stained with acridine orange (AO) and propidium iodide as fluorescent dye. Note here that AO is taken in cells even in living cells to emit green fluorescence, and PI is taken into cells by failure of the barrier function of the cell membrane and bound to DNA to emit red fluorescence. Specifically, AO (10 μM) and PI (15 μM) were dissolved in PBS to form a solution, the pancreatic islets were incubated in the resultant solution for 10 minutes, and then the pancreatic islets were observed under fluorescence microscope. Then, by using image analysis software (Image J free software), an area of the green fluorescence and an area of the red fluorescence were obtained, the rate (%) of the area of green fluorescence excluding the area of the red fluorescence was defined as the viability (%) of pancreatic islet.

For assay [3], the system named is pancreatic islets. Nature of the assay: Secretion of insulin by glucose stimulation (ELISA). The note with it: 60 minutes, islets 150 to 200 μm, n=10. The assay is classed as cell-based, rats. How it is done:
As a medium, RPMI1640 medium containing 3.3 mM glucose and 0.1% fetal bovine serum was used, and conditions were set at 37° C. and in 5% CO2/95% air condition. In measurement, the Transwell medium on which pancreatic islets were placed was subjected to RPMI1640 medium containing 3.3 mM glucose and 0.1% fetal bovine serum, and pre-cultured for 60 minutes. Note here that the culture was carried out at 37° C. and in 5% CO2/95% air conditions. Thereafter, the Transwell medium on which pancreatic islets were placed was moved to a new well containing the similar medium and stood still for 60 minutes (sample A). […] Thereafter, the media of the sample A and the sample B were recovered, and insulin contained in the medium was measured by using an insulin measurement kit (manufactured by Morinaga Biochemical Lab, Inc.) using the ELISA method. Then, the value obtained by dividing the insulin level of the sample B by the insulin level of the sample A was defined as an insulin secretion stimulation index.
(In general: An ELISA detects its analyte on a solid surface through an enzyme-linked reagent.)

Assay [4] relates to diabetes model SCID mice. Nature of the assay: Transplantation of pancreatic islets to diabetes model SCID mice. Type of assay: in vivo. How it is done:
Note here that in the following Examples, rats at an age of 9 to 10 weeks were used as a donor of the pancreatic islets. Furthermore, as a recipient, SCID mice at an age of 9 to 10 weeks were used. Streptozocin (STZ; 250 mg/kg) was intraperitoneally administered to SCID mice under anesthesia of diethyl ether, and β cells were destroyed to induce diabetes. Mice whose casual blood glucose level exceeds 350 mg/dL for two continuous days were regarded as diabetes mice, and they were used as the recipients. […] For the screening of the diabetes model SCID mice, mice whose casual blood glucose level exceeds 350 mg/dL for two continuous days by collection of blood were employed. In transplantation, the mice were subjected to ether anesthesia, and pancreatic islet was infused into the renicapsule of the left kidney by using a 250 μL pipette tip. After transplantation, the blood was recovered every day for the first seven days, and the blood glucose level was measured, and thereafter, the blood glucose level was measured three times a week. Then, on Day 30 after transplantation, the pancreatic islet-transplanted kidney was extracted. Note here that the definition of cure of diabetes was a case in which the blood glucose level was less than 150 mg/dL for three continuous days and the blood glucose level after nephrectomy was increased to more than 250 mg/dL.

Results on 1 compound are retold here after patent publication US20130217094A1, “ENZYME SOLUTION FOR SEPARATING CELL, METHOD FOR SEPARATING CELL AND METHOD FOR SEPARATING PANCREATIC ISLET” (BIO LINK, INCORPORATED, priority 2010, published 2013).

For the compound `O=S(=O)([O-])c1cc(N=C=S)ccc1C=Cc1ccc(N=C=S)cc1S(=O)(=O)[O-].[Na+].[Na+]` [DIDS, 4,4′-di(isothiocyano)stilbene-2,2′-disodium disulfonate], the “yield of the pancreatic islets” value in assay [1] came out at 1969±244 IEQ. In assay [2], the “viability of the pancreatic islets” value is listed as 84.9±4.9%. Besides, the “insulin secretion sample A (3.3 mM glucose)” value in assay [3] (3.3 mM glucose) came to 1.94 ± 0.44 μU. The “insulin secretion sample B (20 mM glucose)” value in assay [3] (20 mM glucose) turned out to be 19.0 ± 4.46 μU. Also, the “blood glucose level on Day 1 to 2 after the transplantation” value in assay [4] (200 IEQ islets transplanted to renicapsule of left kidney, STZ diabetes SCID mice, n=5) turned out to be 78.7 ± 52.7 mg/dL. Further, the “mice that came to have a normal blood glucose (<150 mg/dL)” value in assay [4] (200 IEQ islets transplanted, n=5 in each group) is listed as “all of five mice”.
